Measurements from PubChem BioAssay AID588495 (Sanford-Burnham Center for Chemical Genomics, 2011).
The source made the active and inactive calls.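 The calls were made as follows: active = mean EC50 of 20 µM or lower; inactive = the rest.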

Target: Neurotensin receptor type 2 (Homo sapiens) (UniProt O95665)
Experiment: beta-arrestin recruitment via NTR2 activation – imaging, NTR2-U2OS cells, beta-arrestin GFP imaging, selectivity assay for NTR1 agonist project, SAR follow-up (AID 588495)
Settings: image-based GFP translocation

Neurotensin receptor type 2 (Homo sapiens), sequence (O95665 whole entry, looked up): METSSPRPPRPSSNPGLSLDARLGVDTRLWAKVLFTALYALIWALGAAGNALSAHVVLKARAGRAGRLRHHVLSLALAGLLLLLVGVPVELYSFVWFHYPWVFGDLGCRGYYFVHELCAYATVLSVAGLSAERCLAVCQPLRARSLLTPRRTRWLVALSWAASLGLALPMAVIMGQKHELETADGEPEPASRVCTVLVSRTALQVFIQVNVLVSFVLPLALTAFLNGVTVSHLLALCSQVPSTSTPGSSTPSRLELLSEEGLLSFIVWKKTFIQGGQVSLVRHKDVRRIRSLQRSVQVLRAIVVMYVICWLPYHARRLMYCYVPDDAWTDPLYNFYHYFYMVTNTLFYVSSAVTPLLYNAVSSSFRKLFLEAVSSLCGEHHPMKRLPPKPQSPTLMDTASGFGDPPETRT

| Structure (SMILES) | EC50 |
| --- | --- |
| COc1ccc(-n2ncc3c(N4CCN(c5ccccc5)CC4)ncnc32)cc1 | > 40 µM (inactive) |
| COc1cccc(OC)c1-c1nc(C(=O)O)cn1-c1ccncc1 | > 40 µM (inactive) |
| COc1cc2nc(-c3ccccc3)nc(N3CCN(c4ccccc4)CC3)c2cc1OC | > 40 µM (inactive) |
| COc1cc2c3nnc(-c4ccc(Cl)cc4)c-3cn(Cc3ccc(C)cc3)c2cc1OC | 19.9 µM |
| COc1cccc(OC)c1-c1nc(C(=O)N[C@@H](CC(C)C)C(=O)O)cn1-c1ccc(C)cc1 | > 40 µM (inactive) |
| COc1cccc(N2CCN(c3nc(C4CCC4)nc4cc(OC)c(OC)cc34)CC2)c1 | > 40 µM (inactive) |
| COc1cccc(OC)c1-c1nc(C(=O)N[C@@H](CC(C)C)C(=O)O)cn1-c1ccncc1 | > 40 µM (inactive) |
| Cc1ccc(Cn2cc3c(-c4ccc(F)cc4)nnc-3c3cc4c(cc32)OCO4)cc1 | 15.3 µM |
| CCOC(=O)c1cc(-c2c(OC)cccc2OC)n(-c2ccnc3cc(Cl)ccc23)n1 | > 40 µM (inactive) |
| Cc1ccc(/C=N/Nc2nc(-c3ccc(S(=O)(=O)N(C)C)cc3)cs2)cc1 | > 40 µM (inactive) |
| COc1cc2c3nnc(-c4ccc(C)cc4)c-3cn(Cc3ccc(F)cc3)c2cc1OC | 6.4 µM |
| COc1ccccc1-c1nc(C(=O)N[C@@H](CC(C)C)C(=O)O)cn1-c1ccnc2ccccc12 | > 40 µM (inactive) |
| CCOc1ccc(-c2nnc3c4cc(OC)c(OC)cc4n(Cc4ccc(C)cc4)cc2-3)cc1 | > 40 µM (inactive) |
| COc1cc2c3nnc(-c4ccc(Cl)cc4)c-3cn(Cc3ccccc3)c2cc1OC | 8.38 µM |
| Cc1ccc(-n2ncc3c(N4CCN(c5ccccc5)CC4)ncnc32)cc1C | > 40 µM (inactive) |
| CCOc1cc2nc(-c3ccc(OC)c(OC)c3)nc(N3CCN(c4ccccc4F)CC3)c2cc1OC | > 40 µM (inactive) |
| COc1ccc(Cn2c(SCc3ccccc3)nc3cc(OC)c(OC)cc3c2=N)cc1Cl | > 40 µM (inactive) |
| CCCSc1nc2cc(OC)c(OC)cc2c(=N)n1Cc1cccc(C(F)(F)F)c1 | > 40 µM (inactive) |
| CC(=O)c1ccc(N2CCN(c3ncnc4c3cnn4-c3ccc(C)cc3C)CC2)cc1 | > 40 µM (inactive) |
| Cc1ccc(-n2ncc3c(N4CCN(c5ccc(Cl)c(Cl)c5)CC4)ncnc32)c(C)c1 | > 40 µM (inactive) |
| COc1cccc(OC)c1-c1nc(C(=O)N[C@@H](CC(C)C)C(=O)O)cn1-c1ccnc2ccccc12 | > 40 µM (inactive) |
| CC(C)C[C@H](NC(=O)c1cn(-c2ccnc3ccccc23)c2ccccc12)C(=O)O | > 40 µM (inactive) |
| Cc1ccc(-n2ncc3c(N4CCN(c5ccccc5F)CC4)ncnc32)c(C)c1 | > 40 µM (inactive) |
| Cc1ccc(-n2ncc3c(N4CCN(c5cc(C)ccc5C)CC4)ncnc32)c(C)c1 | > 40 µM (inactive) |
| CN(C)S(=O)(=O)c1ccc(-c2csc(N/N=C/c3cccc(Cl)c3)n2)cc1 | > 40 µM (inactive) |
| Cc1cc(Cl)ccc1-n1ncc2c(N3CCN(c4ccccc4)CC3)ncnc21 | > 40 µM (inactive) |
| CCc1ccc(-c2nnc3c4cc(OC)c(OC)cc4n(Cc4ccc(F)cc4)cc2-3)cc1 | inactive |
| Cc1ccc(-n2ncc3c(N4CCN(c5ccccc5Cl)CC4)ncnc32)c(C)c1 | > 40 µM (inactive) |
| COc1cccc(OC)c1-c1cc(C(=O)N[C@@H](CC(C)C)C(=O)O)nn1-c1ccnc2cc(Cl)ccc12 | > 40 µM (inactive) |
